Counter-ions that a name gives are not always drawn.

These results are taken from patent publication US9216991B2 (Ares Trading S.A., priority 2012, dated 2015).

The test concerns the target T1, IRAK4 (Homo sapiens, UniProt Q9NWZ3).
T1 construct: His (N); TEV cleavage site (N)
T1 sequence (Q9NWZ3 1-460): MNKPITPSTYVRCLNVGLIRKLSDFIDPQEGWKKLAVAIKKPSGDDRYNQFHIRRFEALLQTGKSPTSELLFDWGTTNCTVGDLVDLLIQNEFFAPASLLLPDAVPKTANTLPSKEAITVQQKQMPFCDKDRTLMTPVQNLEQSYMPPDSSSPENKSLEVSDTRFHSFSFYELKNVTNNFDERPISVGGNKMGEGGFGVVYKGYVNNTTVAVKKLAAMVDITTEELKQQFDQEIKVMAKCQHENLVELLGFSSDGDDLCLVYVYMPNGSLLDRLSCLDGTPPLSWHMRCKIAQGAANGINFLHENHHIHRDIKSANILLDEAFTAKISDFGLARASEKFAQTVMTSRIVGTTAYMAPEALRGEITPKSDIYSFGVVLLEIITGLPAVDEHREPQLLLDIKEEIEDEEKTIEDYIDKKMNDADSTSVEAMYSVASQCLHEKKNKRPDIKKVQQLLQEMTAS
Description: IRAK4 Enzymatic Assay. The class given is biochemical. The note with it: His-TEV-IRAK4 20 ng/well, ATP 2 μM, STK1-biotin peptide 300 nM, 3 hours at 30° C., FlashPlate radioactivity. In outline: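 Recombinant His-TEV-tagged IRAK4 (20 ng/well) phosphorylates biotinylated STK1 peptide (300 nM) with 2 μM ATP plus [^33P]ATP, 3 h at 30 °C in pH 7.0 HEPES buffer with MgCl2 and MnCl2; compounds tested 20 μM to 1 nM. Reaction stopped with EDTA; incorporated radioactivity counted on streptavidin FlashPlates.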
In the case of `CN1CCN(C(=O)CCn2cc(-c3cnc(-c4cccc(-c5cnn(C)c5)c4)nc3)cn2)CC1` [Example 102, 1-(4-Methyl-piperazin-1-yl)-3-(4-{2-[3-(1-methyl-1H-pyrazol-4-yl)-phenyl]-pyrimidin-5-yl}-pyrazol-1-yl)-propan-1-one], the IC50 (as a rule, the concentration that inhibits the measured activity by half) was in the range of 1000 to 5000 nM.

With `CN1CCN(C(=O)[C@H]2CC[C@H](n3cc(-c4cnc(-c5cccc(-c6cnn(C)c6)c5)nc4)cn3)CC2)CC1` [Example 160, Trans-(4-Methyl-piperazin-1-yl)-[4-(4-{2-[3-(1-methyl-1H-pyrazol-4-yl)-phenyl]-pyrimidin-5-yl}-pyrazol-1-yl)-cyclohexyl]-methanone], the IC50 was less than 100 nM.

Regarding `Cn1cc(-c2cccc(-c3ncc(-c4cnn(C5C[C@H]6CC[C@@H](C5)N6CC(O)C(F)(F)F)c4)cn3)c2)cn1` (stereo partly drawn) [Example 118, 1,1,1-Trifluoro-3-[(1R,5S)-3-(4-{2-[3-(1-methyl-1H-pyrazol-4-yl)-phenyl]-pyrimidin-5-yl}-pyrazol-1-yl)-8-aza-bicyclo[3.2.1]oct-8-yl]-propan-2-ol], the IC50 lay in the range of 100 to 1000 nM.

In the case of `CC(C)N1C2CCCC1CC(n1cc(-c3cnc(-c4cccc(-c5cnn(C)c5)c4)nc3)cn1)C2` (stereo not shown) [Example 133, 9-Isopropyl-3-(4-{2-[3-(1-methyl-1H-pyrazol-4-yl)-phenyl]-pyrimidin-5-yl}-pyrazol-1-yl)-9-aza-bicyclo[3.3.1]nonane], the IC50 was in the range of 100 to 1000 nM.

With `Cn1cc(-c2cccc(-c3ncc(-c4cnn(CC(=O)N5CC6(COC6)C5)c4)cn3)c2)cn1` [Example 55, 2-(4-{2-[3-(1-Methyl-1H-pyrazol-4-yl)-phenyl]-pyrimidin-5-yl}-pyrazol-1-yl)-1-(2-oxa-6-aza-spiro[3.3]hept-6-yl)-ethanone], the IC50 lay within 100 to 1000 nM.

As to `Cn1cc(-c2cccc(-c3ncc(-c4cnn(CCC(=O)N5CC6(COC6)C5)c4)cn3)c2)cn1` [Example 101, 3-(4-{2-[3-(1-Methyl-1H-pyrazol-4-yl)-phenyl]-pyrimidin-5-yl}-pyrazol-1-yl)-1-(2-oxa-6-aza-spiro[3.3]hept-6-yl)-propan-1-one], the IC50 lay in the range of 1000 to 5000 nM.

Regarding `CC1COCCN1C(=O)Cn1cc(-c2cnc(-c3cccc(-c4cnn(C)c4)c3)nc2)cn1` (stereo not shown) [Example 147, 1-(3-Methyl-morpholin-4-yl)-2-(4-{2-[3-(1-methyl-1H-pyrazol-4-yl)-phenyl]-pyrimidin-5-yl}-pyrazol-1-yl)-ethanone], the IC50 was in the range of 100 to 1000 nM.

As to `CCOC1CC(N2CCC(n3cc(-c4cnc(-c5cccc(-c6cnn(C)c6)c5)nc4)cn3)CC2)C1(C)C` (stereo not shown) [Example 112, 5-{1-[1-(3-Ethoxy-2,2-dimethyl-cyclobutyl)-piperidin-4-yl]-1H-pyrazol-4-yl}-2-[3-(1-methyl-1H-pyrazol-4-yl)-phenyl]-pyrimidine], the IC50 lay in the range of 100 to 1000 nM.

Regarding `CC(CO)NC(=O)[C@H]1CC[C@H](n2cc(-c3cnc(-c4cccc(-c5cnn(C)c5)c4)nc3)cn2)CC1` (stereo partly drawn) [Example 188, trans-4-(4-{2-[3-(1-Methyl-1H-pyrazol-4-yl)-phenyl]-pyrimidin-5-yl}-pyrazol-1-yl)-cyclohexanecarboxylic acid (2-hydroxy-1-methyl-ethyl)-amide], the IC50 lay within 100 to 1000 nM.

`Cn1cc(-c2cccc(-c3ncc(-c4cnn(C5CC6COCC(C5)N6)c4)cn3)c2)cn1` (stereo not shown) [Example 179, 7-(4-{2-[3-(1-Methyl-1H-pyrazol-4-yl)-phenyl]-pyrimidin-5-yl}-pyrazol-1-yl)-3-oxa-9-aza-bicyclo[3.3.1]nonane]: the IC50 was less than 100 nM.

Regarding `Cn1cc(-c2cccc(-c3ncc(-c4cnn(C5CCOCC5)c4)cn3)c2)cn1` [Example 97, 2-[3-(1-Methyl-1H-pyrazol-4-yl)-phenyl]-5-[1-(tetrahydro-pyran-4-yl)-1H-pyrazol-4-yl]-pyrimidine], the IC50 fell in the range of 100 to 1000 nM.

Consider `Cn1cc(-c2cccc(-c3ncc(-c4cnn([C@H]5CC[C@H](N6CCOC6=O)CC5)c4)cn3)c2)cn1` [Example 255, 3-[4-(4-{2-[3-(1-Methyl-1H-pyrazol-4-yl)-phenyl]-pyrimidin-5-yl}-pyrazol-1-yl)-cyclohexyl]-oxazolidin-2-one], for which the IC50 fell in the range of 100 to 1000 nM.

In the case of `CC(=O)N1CCC(n2cc(-c3cnc(-c4cccc(-c5cnn(C)c5)c4)nc3)cn2)C(F)(F)C1` (stereo not shown) [Example 284, 1-[3,3-Difluoro-4-(4-{2-[3-(1-methyl-1H-pyrazol-4-yl)-phenyl]-pyrimidin-5-yl}-pyrazol-1-yl)-piperidin-1-yl]-ethanone], the IC50 is less than 100 nM.

As for `Cn1cc(-c2cccc(-c3ncc(-c4cnn(CCc5ccncc5)c4)cn3)c2)cn1` [Example 53, 2-[3-(1-Methyl-1H-pyrazol-4-yl)-phenyl]-5-[1-(2-pyridin-4-yl-ethyl)-1H-pyrazol-4-yl]-pyrimidine], the IC50 was less than 100 nM.

`Cn1cc(-c2cccc(-c3ncc(-c4cnn(C5CCS(=O)(=O)CC5)c4)cn3)c2)cn1` [Example 176, 5-[1-(1,1-Dioxo-hexahydro-1l6-thiopyran-4-yl)-1H-pyrazol-4-yl]-2-[3-(1-methyl-1H-pyrazol-4-yl)-phenyl]-pyrimidine]: the IC50 is 100 to 1000 nM.

For `COCCn1cc(-c2cnc(-c3cccc(-c4cnn(C)c4)c3)nc2)cn1` [Example 98, 5-[1-(2-Methoxy-ethyl)-1H-pyrazol-4-yl]-2-[3-(1-methyl-1H-pyrazol-4-yl)-phenyl]-pyrimidine], the IC50 lay within 100 to 1000 nM.

In the case of `Cn1cc(-c2cccc(-c3ncc(-c4cnn(CC(N)=O)c4)cn3)c2)cn1` [Example 49, 2-(4-{2-[3-(1-Methyl-1H-pyrazol-4-yl)-phenyl]-pyrimidin-5-yl}-pyrazol-1-yl)-acetamide], the IC50 is 1000 to 5000 nM.

`c1cc(-c2ccncc2)cc(-c2ncc(-c3cnn(C4CCNCC4)c3)cn2)c1` [Example 33, 5-(1-Piperidin-4-yl-1H-pyrazol-4-yl)-2-(3-pyridin-4-yl-phenyl)-pyrimidine hydrochloride]: the IC50 was in the range of 100 to 1000 nM.

In the case of `Cn1cc(-c2cccc(-c3ncc(-c4cnn(C5CCCC5O)c4)cn3)c2)cn1` (stereo not shown) [Example 211, 2-(4-{2-[3-(1-Methyl-1H-pyrazol-4-yl)-phenyl]-pyrimidin-5-yl}-pyrazol-1-yl)-cyclopentanol], the IC50 is 100 to 1000 nM.

On to `COCCC(=O)N[C@H]1CC[C@@H](n2cc(-c3cnc(-c4cccc(-c5cnn(C)c5)c4)nc3)cn2)CC1` [Example 166, Cis-3-Methoxy-N-[4-(4-{2-[3-(1-methyl-1H-pyrazol-4-yl)-phenyl]-pyrimidin-5-yl}-pyrazol-1-yl)-cyclohexyl]-propionamide], for which the IC50 was in the range of 100 to 1000 nM.

Consider `Cn1cc(-c2cccc(-c3ncc(-c4cnn(CC5CCNCC5)c4)cn3)c2)cn1` [Example 29, 2-[3-(1-Methyl-1H-pyrazol-4-yl)-phenyl]-5-(1-piperidin-4-ylmethyl-1H-pyrazol-4-yl)-pyrimidine hydrochloride], for which the IC50 was in the range of 1000 to 5000 nM.

For the compound `Cn1cc(-c2cccc(-c3ncc(-c4cnn(C5CCC(C(=O)O)CC5)c4)cn3)c2)cn1` (stereo not shown) [Example 62, 4-(4-{2-[3-(1-Methyl-1H-pyrazol-4-yl)-phenyl]-pyrimidin-5-yl}-pyrazol-1-yl)-cyclohexanecarboxylic acid], the IC50 is 100 to 1000 nM.

Take `Cn1cc(-c2cccc(-c3ncc(-c4cnn(C5CCN(CC(O)C(F)(F)F)CC5)c4)cn3)c2)cn1` (stereo not shown) [Example 31, 1,1,1-Trifluoro-3-[4-(4-{2-[3-(1-methyl-1H-pyrazol-4-yl)-phenyl]-pyrimidin-5-yl}-pyrazol-1-yl)-piperidin-1-yl]-propan-2-ol]: the IC50 lay in the range of 100 to 1000 nM.

In the case of `OCc1cc(-c2cccc(-c3ncc(-c4cnn(C5CCOCC5)c4)cn3)c2)ccn1` [Example 151, [4-(3-{5-[1-(Tetrahydro-pyran-4-yl)-1H-pyrazol-4-yl]-pyrimidin-2-yl}-phenyl)-pyridin-2-yl]-methanol], the IC50 was 100 to 1000 nM.

Consider `Cn1cc(-c2cccc(-c3ncc(-c4cnn([C@H]5CC[C@H](C(=O)NCCCO)CC5)c4)cn3)c2)cn1` [Example 190, Trans-4-(4-{2-[3-(1-Methyl-1H-pyrazol-4-yl)-phenyl]-pyrimidin-5-yl}-pyrazol-1-yl)-cyclohexanecarboxylic acid (3-hydroxy-propyl)-amide], for which the IC50 is less than 100 nM.

Consider `Cn1cc(-c2cccc(-c3ncc(-c4cnn(C5CCC6(CCC(=O)N6)CC5)c4)cn3)c2)cn1` (single isomer, unassigned) [Example 251, Trans-8-(4-{2-[3-(1-Methyl-1H-pyrazol-4-yl)-phenyl]-pyrimidin-5-yl}-pyrazol-1-yl)-1-aza-spiro[4.5]decan-2-one], for which the IC50 was 100 to 1000 nM.

For `Cc1nn(C)cc1-c1cccc(-c2ncc(-c3cnn(C4CCNCC4)c3)cn2)c1` [Example 14, 2-[3-(1,3-Dimethyl-1H-pyrazol-4-yl)-phenyl]-5-(1-piperidin-4-yl-1H-pyrazol-4-yl)-pyrimidine hydrochloride], the IC50 fell in the range of 1000 to 5000 nM.

Turning to `CC(=O)N1[C@@H]2COC[C@H]1C[C@H](n1cc(-c3cnc(-c4cccc(-c5cnn(C)c5)c4)nc3)cn1)C2` [Example 193, exo-1-[7-(4-{2-[3-(1-Methyl-1H-pyrazol-4-yl)-phenyl]-pyrimidin-5-yl}-pyrazol-1-yl)-3-oxa-9-aza-bicyclo[3.3.1]non-9-yl]-ethanone], the IC50 fell in the range of 100 to 1000 nM.
